Laboratory results: patent US20150133492A1, “N-desmethyldauricine, A Novel Autophagic Enhancer for Treatment of Cancers and Neurodegenerative Conditions Thereof” (Macau University of Science and Technology, priority 2013, published 2015)

Experiments:
[1] = tested on: human normal liver cells (LO2); experiment: MTT cytotoxicity assay, normal liver cells; type: cell-based; conditions: read-out: IC50, cytotoxic effect
Method: The test compound of N-desmethyldauricine was dissolved in DMSO at a final concentration of 100 mmol/L and stored at −20° C. Cytotoxicity was assessed using the 3-(4,5-dimethylthiazol-2-yl)-2,5-diphenyltetrazolium bromide assay as previously described^17. Cell number, 4000-8000 of HeLa (human cervical cancer), MCF-7 (human breast cancer), HepG2 (human liver cancer), Hep3B (human liver cancer), H1299 (human lung cancer), A549 (human lung cancer), PC3 (human prostate cancer), LLC-1 (mouse Lewis lung carcinoma) and LO2 (human normal liver) cells were seeded on 96-well plates per well, respectively. After overnight pre-incubation, the cells were exposed to different concentrations of N-desmethyldauricine (namely […], 0.039 μmol) for 3 days. Subsequently, 10 μL of MTT reagents was added to each well and incubated at 37° C. for 4 hours followed by the addition of 100 μL solubilization buffer (10% SDS in 0.01 mol/L HCl) and overnight incubation. Absorbance at 585 nm was determined from each well on the following day. The percentage of cell viability was calculated using the following formula: Cell viability (%)=Cells number treated/Cells number DMSO control×100. Data was obtained from three independent experiments.

HeLa cancer cells = experiment: Quantification of autophagy GFP-LC3 puncta in HeLa; type: cell-based, human; conditions: 10 μM, 4 hours, compared to DMSO control
Method: GFP-LC3 puncta formation was quantified as previously described^15. In brief, cells grown on coverslips in a 6-well plate were treated with or without 10 μM of N-desmethyldauricine for 4 hours, the cells were then fixed in 4% paraformaldehyde for 20 minutes at room temperature and then rinsed with PBS. Slides were mounted with FluorSave™ mounting media (Calbiochem, San Diego, Calif.) and examined by fluorescence microscopy. The number of GFP-positive cells with GFP-LC3 puncta formation was examined under the Nikon ECLIPSE 80i microscope. Representative images were captured with CCD digital camera Spot RT3™ (Diagnostic Instruments, Inc., Melville, N.Y.). To quantify for autophagy, the percentage of cells with punctate GFP-LC3 fluorescence was calculated by counting the number of the cells with punctate GFP-LC3 fluorescence in GFP-positive cells. A minimum of 150 cells from 3 randomly selected fields was scored.

[2] = tested on: AMPK-mTOR signaling pathway; experiment: Western blot of mTOR signaling marker proteins; type: cell-based, human; conditions: HeLa
Method: HeLa cells treated with indicated time and concentrations of N-desmethyldauricine were harvested and lysed in RIPA buffer (Cell Signaling). The cell lysates were then resolved by SDS-PAGE. After electrophoresis, the proteins from SDS-PAGE were transferred to nitrocellulose membrane which was then blocked with 5% non-fat dried milk for 60 minutes. The membrane was then incubated with P-p70S6K, p70S6K, P-AMPK, AMPK and actin primary antibodies (1:1000) in TBST overnight at 4° C. respectively. After that, the membrane was further incubated with HRP-conjugated secondary antibodies for 60 minutes. Finally, protein bands were visualized by using the ECL Western Blotting Detection Reagents (Invitrogen).

HeLa cells = experiment: Calcium detection by flow cytometry (Fluo-3); type: cell-based, human; conditions: 5 μM/10 μM, 1 h, 2 h, 4 h
Method: Changes in intracellular free calcium were measured by a fluorescent dye, Fluo-3, as described previously^18. Briefly, HeLa cells were washed twice with MEM medium after N-desmethyldauricine (LP-4) treatment (5 μM/10 μM) for various times (1 h, 2 h, 4 h). Then cell suspensions were incubated with 5 μM Fluo-3 at 37° C. for 30 min. Then the cells were washed twice with HBSS. After re-suspended cell samples were subjected to FACS analysis, at least 10,000 events were analyzed.

SERCA1A = target: T1, SERCA1A (Oryctolagus cuniculus, UniProt P04191); experiment: Measurement of SERCA Ca2+ ATPase activity; type: biochemical; conditions: rabbit skeletal muscle SR, dose-dependent
T1 construct: Purified Ca^2+ ATPase (SERCA1A) is prepared from female rabbit hind leg muscle; from tissue; host or cells: female rabbit hind leg skeletal muscle (sarcoplasmic reticulum)
Method: Purified Ca^2+ ATPase (SERCA1A) is prepared from female rabbit hind leg muscle^24. ATPase activity is determined using the enzyme-coupled method utilizing pyruvate kinase and lactate dehydrogenase as previously described in Michelangeli et al. (1990)^25. All SERCA inhibition data is fitted to the allosteric dose versus effect equation using Fig P (Biosoft):
Activity=minimum activity+(maximum activity−minimum activity)/(1+([I]IC50)P).
In molecular docking, 5000 poses were generated during the initial phase of the docking calculation, out of which the best 1000 poses were chosen for energy minimization by 1000 steps of conjugate gradient minimizations. The performance of molecular docking was evaluated by comparing the docked pose with the experimental structure for N-desmethyldauricine in the X-ray co-crystallized complex. TG in the X-ray co-crystallized complexes was re-docked into the binding sites and the RMSD for re-docked result of TG is 1.78 Å. […] To ascertain whether the SERCA pump is suppressed by N-desmethyldauricine, SERCA inhibitory effect is quantified using purified rabbit skeletal muscle sarcoplasmic reticulum (SR) membranes to measure the expression of the SERCA1A isoform by the SR membrances^26. Most of the existing SERCA inhibitors show similar inhibitory effect in SERCA isoform ^15,16. […]

[3] = tested on: autophagy deficient cells (Atg7−/−); experiment: Annexin V flow cytometry cell death, Atg7 deficient MEFs; type: cell-based, mouse; conditions: 10 μM, 24 h
Method: Cell viability was measured using an annexin V staining kit (BD Biosciences, San Jose, Calif., USA). Briefly, Atg7 wild-type (Atg7^+/+ or Atg7-wt) and Atg7 deficient (Atg7^−/− or Atg7-ko) mouse embryonic fibroblasts (MEFs) were treated with the 10 μM N-desmethyldauricine for 24 h. Cells were then harvested and analysed by multiparametric flow cytometry using FITC-Annexin V and Propidium iodide staining (BD Biosciences, San Jose, Calif., USA) according to the manufacturer's instructions. Flow cytometry was then carried out using a FACSCalibur flow cytometer (BD Biosciences, San Jose, Calif., USA). Data acquisition and analysis was performed with CellQuest (BD Biosciences, San Jose, Calif., USA). Data were obtained from three independent experiments.

T1 sequence (P04191 1-994 isoform P04191-2): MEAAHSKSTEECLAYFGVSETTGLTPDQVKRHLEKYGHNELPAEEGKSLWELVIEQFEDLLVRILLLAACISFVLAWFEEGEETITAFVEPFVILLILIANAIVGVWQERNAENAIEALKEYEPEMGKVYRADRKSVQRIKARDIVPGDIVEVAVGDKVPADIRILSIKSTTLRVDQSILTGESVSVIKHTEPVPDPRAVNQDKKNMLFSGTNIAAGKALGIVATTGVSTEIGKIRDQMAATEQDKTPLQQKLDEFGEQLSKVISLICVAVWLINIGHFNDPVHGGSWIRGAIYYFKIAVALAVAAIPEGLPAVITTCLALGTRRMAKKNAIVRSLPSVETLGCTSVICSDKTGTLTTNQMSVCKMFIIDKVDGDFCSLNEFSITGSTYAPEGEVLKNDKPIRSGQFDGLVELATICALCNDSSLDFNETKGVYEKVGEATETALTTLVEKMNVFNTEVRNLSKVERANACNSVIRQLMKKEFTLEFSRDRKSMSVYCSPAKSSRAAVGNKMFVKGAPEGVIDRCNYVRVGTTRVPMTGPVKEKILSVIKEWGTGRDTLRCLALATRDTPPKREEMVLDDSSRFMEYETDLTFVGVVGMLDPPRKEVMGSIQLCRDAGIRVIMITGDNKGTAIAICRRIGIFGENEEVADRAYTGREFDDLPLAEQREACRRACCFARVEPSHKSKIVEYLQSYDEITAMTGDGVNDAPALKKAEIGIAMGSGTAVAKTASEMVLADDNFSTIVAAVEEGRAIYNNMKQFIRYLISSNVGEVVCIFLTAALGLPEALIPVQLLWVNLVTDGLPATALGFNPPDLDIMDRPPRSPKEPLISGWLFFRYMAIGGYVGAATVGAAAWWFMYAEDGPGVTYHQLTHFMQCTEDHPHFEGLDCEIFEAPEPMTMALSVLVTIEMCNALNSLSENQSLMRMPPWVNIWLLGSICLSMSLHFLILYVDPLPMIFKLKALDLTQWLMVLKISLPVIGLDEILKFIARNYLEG

## COc1cc2c(cc1OC)[C@@H](Cc1ccc(Oc3cc(C[C@H]4NCCc5cc(OC)c(OC)cc54)ccc3O)cc1)N(C)CC2 [N-desmethyldauricine]
[1]
  IC50: > 62.1 µM
HeLa cancer cells
  GFP-LC3 puncta formation: significantly induced
[2]
  p70S6K phosphorylation: concomitant reduction
[2]; time dependent
  phosphorylation of AMPK: activate
HeLa cells
  cytosolic calcium level: increase
SERCA1A
  Ca2+ ATPase activity of SERCA: inhibited
[3]
  cell death: not
